Structures can show the parent of a compound that is named as a salt. Where two headings read alike, the source gives them in different places.
Key:
[1] = biological target: IDO in HeLa cells (Homo sapiens (Human), UniProt P14902); test: Inhibition activity on IDO in HeLa cells (INF-γ induced); format: cell-based; settings: HeLa cells, INF-γ and tryptophan, 48 hours; read-out: IC50 for inhibiting the activity of IDO in HeLa cells
Protocol: Assay for Determining the Inhibition Activity of the Present Compounds on IDO in HeLa Cells
IDO activity in HeLa cells was tested in vitro by the following method.
This method is used to determine the inhibition effect of the compounds of the present invention on the activity of IDO in HeLa cells. (Note: indoleamine 2,3-dioxygenase (IDO) is expressed in the HeLa cell line and induced by interferon gamma (INF-γ)).
The supernatant was removed, serum-free DMEM high glucose medium was added at 90 μL/well, then the compounds contained in the culture medium with INF-γ and tryptophan were added at 10 μL/well (the final concentrations: 10000, 1000, 100, 10, 1, 0.1 nM). […] Then, 80 μL of the supernate was transferred from the 96-well cell culture plate to a 96 well round-bottomed plate, then 30% (W/V) trichloroacetic acid was added at 16 μL/well, then the mixture was incubated for 25 minutes at 65° C. in an incubator. The reaction plate was centrifuged in a centrifuge for 5 minutes at 4700 RPM. Then, 50 μL of the supernatant was transferred from the reaction plate to a 96-well flat-bottomed transparent plate by a multi-channel pipette. Then, 2% (W/V) 4-(dimethylamino)benzaldehyde/glacial acetic acid solution was added at 50 μL/well, then the mixture was mixed uniformly for 1 minute on a shaker. After incubation for 2 minutes at room temperature, the absorbance at 480 nm was read on a Synergy HT Reader.
The inhibition activity of the compounds of the present invention on IDO in HeLa cells was tested by the assay described above.

[2] = biological target: human IDO1 (Homo sapiens (Human), UniProt P14902); test: Inhibition activity on human IDO1 (enzyme assay, absorbance at 480 nm); format: biochemical; settings: read-out: IC50 for inhibiting the activity of human IDO1
Chain of human IDO1 (P14902 whole entry): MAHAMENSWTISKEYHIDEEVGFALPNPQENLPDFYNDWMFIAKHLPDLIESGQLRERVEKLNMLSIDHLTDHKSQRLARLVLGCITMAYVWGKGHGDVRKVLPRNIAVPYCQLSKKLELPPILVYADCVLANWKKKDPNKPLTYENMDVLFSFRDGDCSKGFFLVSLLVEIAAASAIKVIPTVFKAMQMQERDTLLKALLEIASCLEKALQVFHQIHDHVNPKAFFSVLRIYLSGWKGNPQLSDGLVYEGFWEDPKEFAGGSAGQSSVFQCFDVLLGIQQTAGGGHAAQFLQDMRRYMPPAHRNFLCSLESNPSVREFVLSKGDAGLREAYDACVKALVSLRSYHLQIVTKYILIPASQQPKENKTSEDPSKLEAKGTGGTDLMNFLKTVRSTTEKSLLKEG
Protocol: Assay for Determining the Inhibition Activity of the Present Compounds on Human IDO1
Human IDO1 activity was tested in vitro by the following method.
This method is used to determine the inhibition effect of the compounds of the present invention on the activity of human IDO1.
The human IDO1 gene was transferred to Pet30a plasmid by gene cloning, and then transferred to competent Escherichia coli Rosseta. The IDO1 gene was scaled-up by culturing in liquid LB (Luria-Bertani) medium [which was prepared per liter according to “Molecular Cloning A Laboratory Manual” (J. Sambrook, D. W. Russell)]). The bacteria were collected and lysed by ultrasonic waves. The purified IDO1 was obtained by eluting from a column.
For testing, 24 μL of enzyme (IDO1) was diluted 100 times with 50 mM KPB to 2400 μL. The concentration of the enzyme solution was 2.6 ng/μL. A 96 well reaction plate (AXYGEN, PCR-96-FLT-C) (hereinafter referred to as the “reaction plate”) was added with the enzyme solution at 24 μL/well. The blank well was added with 24 μL of KPB [Preparation of KPB buffer (50 mM): 6.805 g of KH2PO4 was weighed using an analytical balance, and placed into a 1000 mL beaker, deionized water was added with a measuring cylinder to 900 ml, the pH was adjusted to 6.5 by 1M KOH, then the mixture was introduced into a 1 L measuring cylinder, and water was added to 1 L. It was stored at 4° C.]. Then, 1 μL of a compound or DMSO was added into the corresponding wells in the reaction plate. Preparation of solution A: 200 μL of 500 mM L-sodium ascorbate were added with 1050 μL of KPB, then the mixture was mixed uniformly for 3 seconds at the maximum speed in a turbine mixer. Solution B: 100 μL of 10 mM tryptophan were added with 100 μL of 100,000 unit/mL catalase, 5 μL of 10 mM methylene blue, and 1050 μL of KPB successively, then the mixture was mixed uniformly for 3 seconds at the maximum speed in a turbine mixer. Then, 1200 μL of solution A and 1200 μL of solution B were taken and mixed uniformly for 3 seconds at the maximum speed in a turbine mixer. The mixture was added to the reaction plate at 24 μL/well. The reaction plate was placed in a plate centrifuge and centrifuged for 15 seconds at the maximum speed, so that the reaction liquids converged to the bottom. The reaction mixture was mixed uniformly for 30 seconds on a shaker, and incubated for 1 hour at 37° C. in a constant temperature incubator. In the reaction plate, 30% (W/V) trichloroacetic acid was added at 10 μL/well, then the mixture was incubated for 15 minutes at 65° C. in an incubator. The reaction plate was centrifuged in a centrifuge for 5 minutes at 4700 RPM at room temperature. […] Then, 2% (W/V) 4-(dimethylamino)benzaldehyde/glacial acetic acid solution was added at 40 μL/well, and the mixture was mixed uniformly for 1 minute on a shaker at the maximum speed. After incubation for 2 minutes at room temperature, the absorbance at 480 nm was read on a Synergy HT (BIOTEK) reader.
The inhibition activity of the compounds of the present invention on human IDO1 was tested by the assay described above.

[3] = purified recombinant human IDO1, 1 hour at 37° C.

Chain of IDO in HeLa cells (P14902 whole entry): as above

IC50 [1]	IC50 [2, 3]	SMILES	IC50 [2]
188 nM	96.2 nM	COc1ccc(N2CCC(C3c4c(F)cccc4-c4cncn43)CC2)cc1 (stereo not shown) [Example 4, 6-fluoro-5-(1-(4-methoxyphenyl)piperidin-4-yl)-5H-imidazo[5,1-a]isoindole trifluoroacetate]	
253 nM	78.8 nM	Cn1cc(-c2cccc(N3CCC(C4c5c(F)cccc5-c5cncn54)CC3)c2)cn1 (stereo not shown) [Example 8, 6-fluoro-5-(1-(3-(1-methyl-1H-pyrazol-4-yl)phenyl)piperidin-4-yl)-5H-imidazo[5,1-a]isoindole]	
477 nM	73.2 nM	O=C(NC1CCOCC1)c1ccc(N2CCC(C3c4c(F)cccc4-c4cncn43)CC2)cc1 (stereo not shown) [Example 11, 4-(4-(6-fluoro-5H-imidazo[5,1-a]isoindol-5-yl)piperidin-1-yl)-N-(tetrahydro-2H-pyran-4-yl)benzamide trifluoroacetate]	
70.6 nM	68.7 nM	CC(=O)Nc1cccc(N2CCC(C3c4c(F)cccc4-c4cncn43)CC2)c1 (stereo not shown) [Example 12, N-(3-(4-(6-fluoro-5H-imidazo[5,1-a]isoindol-5-yl)piperidin-1-yl)phenyl)acetamide trifluoroacetate]	
199 nM		Fc1cccc2c1C(C1CCN(c3ccccn3)CC1)n1cncc1-2 (stereo not shown) [Example 15, 6-fluoro-5-(1-(pyridin-2-yl)piperidin-4-yl)-5H-imidazo[5,1-a]isoindole trifluoroacetate]	
260 nM		Fc1cccc2c1C(C1CCN(c3ncccn3)CC1)n1cncc1-2 (stereo not shown) [Example 16, 6-fluoro-5-(1-(pyrimidin-2-yl)piperidin-4-yl)-5H-imidazo[5,1-a]isoindole trifluoroacetate]	
477 nM		O=C(Nc1ccccc1)N1CCC(C2c3c(F)cccc3-c3cncn32)CC1 (stereo not shown) [Example 21, 4-(6-fluoro-5H-imidazo[5,1-a]isoindol-5-yl)-N-phenylpiperidine-1-carboxamide trifluoroacetate]	
130 nM	56.9 nM	N#Cc1ccc(NC(=O)N2CCC(C3c4c(F)cccc4-c4cncn43)CC2)cc1 (stereo not shown) [Example 22, N-(4-cyanophenyl)-4-(6-fluoro-5H-imidazo[5,1-a]isoindol-5-yl)piperidine-1-carboxamide trifluoroacetate]	
		CS(=O)(=O)N1CCC(n2cc(-c3ccc(N4CCC(C5c6c(F)cccc6-c6cncn65)CC4)cc3)cn2)CC1 (stereo not shown) [Example 31, 6-fluoro-5-(1-(4-(1-(1-(methylsulfonyl)piperidin-4-yl)-1H-pyrazol-4-yl)phenyl)piperidin-4-yl)-5H-imidazo[5,1-a]isoindole trifluoroacetate]	14.2 nM
47.2 nM		COc1cccc(NC(=O)C2CCC([C@@H]3c4c(F)cccc4-c4cncn43)CC2)c1 (stereo partly drawn) [Example 33, (1S,4S)-4-((R)-6-fluoro-5H-imidazo[5,1-a]isoindol-5-yl)-N-(3-methoxyphenyl)cyclohexanecarboxamide]	
114 nM	17.8 nM	CS(=O)(=O)N1CCCC(Oc2cnc(N3CCC(C4c5c(F)cccc5-c5cncn54)CC3)nc2)C1 (stereo not shown) [Example 37, 6-fluoro-5-(1-(5-((1-(methylsulfonyl)piperidin-3-yl)oxy)pyrimidin-2-yl)piperidin-4-yl)-5H-imidazo[5,1-a]isoindole trifluoroacetate]	
151 nM	28.1 nM	Fc1cccc2c1C(C1CCN(c3ccc(OC4CCOC4)cc3)CC1)n1cncc1-2 (stereo not shown) [Example 38, 6-fluoro-5-(1-(4-((tetrahydrofuran-3-yl)oxy)phenyl)piperidin-4-yl)-5H-imidazo[5,1-a]isoindole]	
88.3 nM		Fc1cccc2c1C(C1CCN(c3ccc(Cl)cn3)CC1)n1cncc1-2 (stereo not shown) [Example 47, 5-(1-(5-chloropyridin-2-yl)piperidin-4-yl)-6-fluoro-5H-imidazo[5,1-a]isoindole]	

SMILES	IC50 [1]	IC50 [2, 3]	IC50 [2]
Fc1cccc2c1C(C1CCN(c3ccc(-c4cnn([C@@H]5CCOC5)c4)cc3)CC1)n1cncc1-2 (stereo partly drawn) [Example 32, 6-fluoro-5-(1-(4-(1-((R)-tetrahydrofuran-3-yl)-1H-pyrazol-4-yl)phenyl)piperidin-4-yl)-5H-imidazo[5,1-a]isoindole trifluoroacetate]	225 nM		33 nM
COCCn1cc(-c2ccc(N3CCC(C4c5c(F)cccc5-c5cncn54)CC3)cc2)cn1 (stereo not shown) [Example 42, 6-fluoro-5-(1-(4-(1-(2-methoxyethyl)-1H-pyrazol-4-yl)phenyl)piperidin-4-yl)-5H-imidazo[5,1-a]isoindole trifluoroacetate]	254 nM		36.3 nM
CC(=O)NCCn1cc(-c2ccc(N3CCC(C4c5c(F)cccc5-c5cncn54)CC3)cc2)cn1 (stereo not shown) [Example 43, N-(2-(4-(4-(4-(6-fluoro-5H-imidazo[5,1-a]isoindol-5-yl)piperidin-1-yl)phenyl)-1H-pyrazol-1-yl)ethyl)acetamide trifluoroacetate]	171 nM		63.3 nM
Fc1cccc2c1C(C1CCN(c3ccc(-c4cnn(C5CCOC5)c4)cc3)CC1)n1cncc1-2 [Example 44, 6-fluoro-5-(1-(4-(1-((R)-tetrahydrofuran-3-yl)-1H-pyrazol-4-yl)phenyl)piperidin-4-yl)-5H-imidazo[5,1-a]isoindole trifluoroacetate]	175 nM		16.6 nM

From US10899764B2, “Imidazo isoindole derivative, preparation method therefor and medical use thereof” (Jiangsu Hengrui Medicine Co., Ltd., priority 2015, dated 2021)
